Measurements published in paper PMC7391767, “Molecular mechanisms underlying menthol binding and activation of TRPM8 ion channel” (Nature Communications, 2020).
Several values for one entry are separate records, joined by “and”; a condition that tells them apart may be missing. Equal values may be shown once. Entries after “also recorded” stand apart in the source; their conditions may differ. Read-outs that look alike come from different tables or passages of the source. Blank lines part the entries; values can stand above or below the compound they belong to.

What was measured:
Format in all cases: cell-based
[1] = biological target: T1, wild-type TRPM8 (Mus musculus, UniProt Q8R4D5); test: whole-cell patch-clamp recording of ligand activation
T1 construct: expressed in transfected cells; host or cells: HEK293T
T1 sequence (Q8R4D5 whole entry): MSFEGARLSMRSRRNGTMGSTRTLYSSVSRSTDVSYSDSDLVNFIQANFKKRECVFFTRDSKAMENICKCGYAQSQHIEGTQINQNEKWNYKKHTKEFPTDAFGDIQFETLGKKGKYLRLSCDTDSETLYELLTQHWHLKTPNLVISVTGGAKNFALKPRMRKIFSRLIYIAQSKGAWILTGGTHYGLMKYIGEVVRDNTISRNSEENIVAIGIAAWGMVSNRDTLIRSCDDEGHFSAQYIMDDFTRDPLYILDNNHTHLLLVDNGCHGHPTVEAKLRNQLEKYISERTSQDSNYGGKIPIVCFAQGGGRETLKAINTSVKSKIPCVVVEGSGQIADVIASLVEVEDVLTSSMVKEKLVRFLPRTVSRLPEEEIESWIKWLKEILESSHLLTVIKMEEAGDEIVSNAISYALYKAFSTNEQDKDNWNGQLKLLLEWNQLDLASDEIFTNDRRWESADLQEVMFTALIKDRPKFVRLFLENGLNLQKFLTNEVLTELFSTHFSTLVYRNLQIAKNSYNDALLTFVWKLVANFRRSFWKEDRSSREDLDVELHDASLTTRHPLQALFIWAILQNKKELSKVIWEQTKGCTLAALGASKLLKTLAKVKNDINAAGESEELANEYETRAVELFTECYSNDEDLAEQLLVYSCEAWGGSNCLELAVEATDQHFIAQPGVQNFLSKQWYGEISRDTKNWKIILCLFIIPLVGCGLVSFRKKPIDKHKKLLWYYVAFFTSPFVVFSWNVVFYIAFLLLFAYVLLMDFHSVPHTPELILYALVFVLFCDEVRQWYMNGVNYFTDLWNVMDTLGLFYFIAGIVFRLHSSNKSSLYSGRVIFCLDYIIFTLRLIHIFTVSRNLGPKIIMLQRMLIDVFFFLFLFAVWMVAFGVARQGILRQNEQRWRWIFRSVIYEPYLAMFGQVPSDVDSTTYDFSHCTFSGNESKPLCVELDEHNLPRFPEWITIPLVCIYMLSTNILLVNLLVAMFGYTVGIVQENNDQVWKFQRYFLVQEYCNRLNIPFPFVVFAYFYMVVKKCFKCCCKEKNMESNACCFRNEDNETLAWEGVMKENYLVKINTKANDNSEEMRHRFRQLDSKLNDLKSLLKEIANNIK
Method: Murine TRPM8 was used in this study. Point mutations were made by Fast Mutagenesis Kit V2 (SBS Genetech). Primers used to generate point mutations are summarized in Supplementary Table 2.
Cells were transiently transfected with cDNA constructs by Lipofectamine 3000 (Life Technologies) following the manufacturer’s protocol. Patch-clamp recordings were performed 1–2 days after transfection.
(§1) Patch-clamp recordings were performed with a HEKA EPC10 amplifier controlled by PatchMaster software (HEKA). Whole-cell recordings were performed at ±80 mV. Patch pipettes were prepared from borosilicate glass and fire-polished to resistance of ~4 MΩ. For whole-cell recording, serial resistance was compensated by 60%. For single-channel recordings, patch pipettes were fire-polished to a higher resistance of 6-to-10 MΩ and then recorded in the inside-out configuration. To maximize the chance of obtaining a patch with only one channel, single-channel recordings were performed about 8 h after transfection. A solution with 130 mM NaCl, 10 mM glucose, 0.2 mM EDTA, and 3 mM HEPES (pH 7.2) was used in both bath and pipette for either whole-cell or single-channel recordings. Membrane potential was clamped at +80 mV for single-channel recordings. Current was sampled at 10 kHz and filtered at 2.9 kHz. All recordings were performed at room temperature (22 °C) with the maximum variation of 1 °C.
(§2) Ligands such as menthol and its analogs were perfused to membrane patch by a gravity-driven system (RSC-200, Bio-Logic). Bath and ligand solution were delivered through separate tubes to minimize the mixing of solutions. Patch pipette was placed in front of the perfusion tube outlet.
Data from whole-cell recordings were analyzed in Igor Pro version 6.1 (WaveMatrix). EC50 values were derived from fitting a Hill equation to the concentration–response relationship. […] To distinguish these possibilities, dissociation constant (Kd) for ligand binding was estimated assuming the following gating scheme:1 C0↔KdC1↔LO, where L is the equilibrium constant for the final closed-to-open transition.

[2] = biological target: T2, TRPM8 V775A (Mus musculus, UniProt Q8R4D5, V775A); test: whole-cell patch-clamp and thermodynamic mutant cycle analysis
T2 construct: expressed in transfected cells; host or cells: HEK293T
T2 sequence (Q8R4D5 whole entry V775A): as the sequence (Q8R4D5 whole entry) above, with V775A counted along it
Method: (§3) Murine TRPM8 was used in this study. Point mutations were made by Fast Mutagenesis Kit V2 (SBS Genetech). Primers used to generate point mutations are summarized in Supplementary Table 2. All mutations were confirmed by sequencing.
(§4) HEK293T cells purchased from Kunming Cell Bank, Kunming Institute of Zoology, Chinese Academy of Sciences (ATCC, CRL-3216) were cultured in Dulbecco’s modified Eagle’s medium supplemented with 20 mM L-glutamine and 10% fetal bovine serum. Cells were transiently transfected with cDNA constructs by Lipofectamine 3000 (Life Technologies) following the manufacturer’s protocol. Patch-clamp recordings were performed 1–2 days after transfection.
as §1, §2
(§5) Data from whole-cell recordings were analyzed in Igor Pro version 6.1 (WaveMatrix). EC50 values were derived from fitting a Hill equation to the concentration–response relationship. Changes in EC50 by point mutation may be caused by either perturbation of ligand bind or channel gating or both. To distinguish these possibilities, dissociation constant (Kd) for ligand binding was estimated assuming the following gating scheme:1 C0↔KdC1↔LO, where L is the equilibrium constant for the final closed-to-open transition.
(§6) To perform thermodynamic cycle analysis, Kd values of four channel-ligand combinations (WT channel, menthol: Kd _1; Mutant channel, menthol: Kd _2; WT channel, menthol analog: Kd _3; Mutant channel, menthol analog: Kd _4) were determined separately. The strength of coupling was determined by the coupling energy (kT multiplied by LnΩ, where k is the Boltzmann constant and T is temperature in Kelvin). LnΩ was calculated by Eq. (2) as[51]2 LnΩ=LnKd_1⋅Kd_4/Kd_2⋅Kd_3.

[3] = biological target: T3, TRPM8 F839A (Mus musculus, UniProt Q8R4D5, F839A); test: as above
T3 construct: expressed in transfected cells; host or cells: HEK293T
T3 sequence (Q8R4D5 whole entry F839A): as the sequence (Q8R4D5 whole entry) above, with F839A counted along it
Method: as §3, §4, §1, §2, §5, §6

[4] = biological target: T4, TRPM8 L843V (Mus musculus, UniProt Q8R4D5, L843V); test: as above
T4 construct: expressed in transfected cells; host or cells: HEK293T
T4 sequence (Q8R4D5 whole entry L843V): as the sequence (Q8R4D5 whole entry) above, with L843V counted along it
Method: as §3, §4, §1, §2, §5, §6

[5] = biological target: T5, TRPM8 I846V (Mus musculus, UniProt Q8R4D5, I846V); test: as above
T5 construct: expressed in transfected cells; host or cells: HEK293T
T5 sequence (Q8R4D5 whole entry I846V): as the sequence (Q8R4D5 whole entry) above, with I846V counted along it
Method: as §3, §4, §1, §2, §5, §6

[6] = biological target: T6, TRPM8 L843I (Mus musculus, UniProt Q8R4D5, L843I); test: as above
T6 construct: expressed in transfected cells; host or cells: HEK293T
T6 sequence (Q8R4D5 whole entry L843I): as the sequence (Q8R4D5 whole entry) above, with L843I counted along it
Method: as §3, §4, §1, §2, §5, §6

[7] = biological target: T7, TRPM8 Y745F (Mus musculus, UniProt Q8R4D5, Y745F); test: as above
T7 construct: expressed in transfected cells; host or cells: HEK293T
T7 sequence (Q8R4D5 whole entry Y745F): as the sequence (Q8R4D5 whole entry) above, with Y745F counted along it
Method: as §3, §4, §1, §2, §5, §6

[8] = biological target: T8, TRPM8 L843A (Mus musculus, UniProt Q8R4D5, L843A); test: as above
T8 construct: expressed in transfected cells; host or cells: HEK293T
T8 sequence (Q8R4D5 whole entry L843A): as the sequence (Q8R4D5 whole entry) above, with L843A counted along it
Method: as §3, §4, §1, §2, §5, §6

[9] = R(kcal/K/mol) 1.99E-03, T 2.97E+02, menthol vs labelled analog
[10] = mutant cycle menthol vs labelled analog

Compound: OC1CCCCC1 [cyclohexanol]
activation of TRPM8 channel ([1]; up to 5 mM): failed to open; also recorded: cannot activate

Ratio X2 (Kd menthol / Kd labelled analog) [2]: 2.4876 | Energy, Ave [2, 9]: -0.60 | Omega(X1/X2) ([2]; menthol vs labelled analog): 0.36 | Coupling Energy [2, 10]: 1.01 kT | Ratio X2 (Kd menthol / Kd labelled analog) [3]: 1.37 | Energy, Ave [3, 9]: -0.25 | Omega(X1/X2) ([3]; menthol vs labelled analog): 0.66 | Coupling Energy [3, 10]: 0.42 kT | Ratio X2 (Kd menthol / Kd labelled analog) [4]: 0.4038 | Energy, Ave [4, 9]: 0.48 | Omega(X1/X2) ([4]; menthol vs labelled analog): 2.24 | Coupling Energy [4, 10]: 0.81 kT | L (equilibrium constant between closed and open states upon ligand binding), Ave [5]: 41.287 | Ratio X2 (Kd menthol / Kd labelled analog) [5]: 0.02928 | concentration–response curve value, ave ([5]; 100 microM): 0.5053 | concentration–response curve value, single recording ([5]; 100 microM): 0.5194 and 0.5746 and 0.5283 and 0.3989 | concentration–response curve value, ave ([5]; 200 microM): 0.8162 | concentration–response curve value, single recording ([5]; 200 microM): 0.818 and 0.8632 and 0.783 and 0.8004 | concentration–response curve value, ave ([5]; 500 microM): 0.9296 | concentration–response curve value, single recording ([5]; 500 microM): 0.9586 and 0.8698 and 0.9387 and 0.9513 | concentration–response curve value, ave ([5]; 1000 microM): 0.9432 | concentration–response curve value, single recording ([5]; 1000 microM): 0.9846 and 0.8706 and 0.9587 and 0.9591 | concentration–response curve value, ave ([5]; 5000 microM): 0.9595 | concentration–response curve value, single recording ([5]; 5000 microM): 0.9671 and 0.952 | Energy, Ave [5, 9]: 2.02 | Kd ([5]; calculated from concentration–response curves, read-out: Kd, Ave): 4.09 mM | Omega(X1/X2) ([5]; menthol vs labelled analog): 30.85 | Coupling Energy [5, 10]: 3.43 kT | Ratio X2 (Kd menthol / Kd labelled analog) [6]: 0.229 | Energy, Ave [6, 9]: 0.81 | Omega(X1/X2) ([6]; menthol vs labelled analog): 3.95 | Coupling Energy [6, 10]: 1.37 kT | Ratio X2 (Kd menthol / Kd labelled analog) [7]: 1.55E+00 | Energy, Ave [7, 9]: -0.32 | Omega(X1/X2) ([7]; menthol vs labelled analog): 0.58 | Coupling Energy [7, 10]: 0.54 kT | Ratio X2 (Kd menthol / Kd labelled analog) [8]: 34.2166 | Energy, Ave [8, 9]: -2.14 | Omega(X1/X2) ([8]; menthol vs labelled analog): 0.0264 | Coupling Energy [8, 10]: 3.63 kT | L (equilibrium constant between closed and open states upon ligand binding), Ave ([1]; WT): 2.233 | Ratio X1 (Kd menthol / Kd labelled analog) ([1]; WT): 0.9034 | concentration–response curve value, ave ([1]; WT, 100 microM): 0.06552 | concentration–response curve value, ave ([1]; WT, 200 microM): 0.185 | concentration–response curve value, ave ([1]; WT, 500 microM): 0.4757 | concentration–response curve value, single recording ([1]; WT, 500 microM): 0.4347 and 0.5954 and 0.3968 | concentration–response curve value, ave ([1]; WT, 1000 microM): 0.5625 | concentration–response curve value, single recording ([1]; WT, 1000 microM): 0.5176 and 0.6462 and 0.5237 | concentration–response curve value, ave ([1]; WT, 5000 microM): 0.6452 | concentration–response curve value, single recording ([1]; WT, 5000 microM): 0.5498 and 0.7014 and 0.6843 | concentration–response curve value, ave ([1]; WT, 10000 microM): 0.6337 | concentration–response curve value, single recording ([1]; WT, 10000 microM): 0.5212 and 0.6983 and 0.6816 | Kd ([1]; WT, calculated from concentration–response curves (EC50 and Po max), read-out: Kd, Ave): 1.05 mM | Kd ([1]; WT, read-out: Kd, single recording): 1.32 mM and 0.824 mM and 0.542 mM and 0.812 mM and 1.46 mM and 0.617 mM and 1.26 mM and 1.59 mM
Compound: C=C(C)[C@@H]1CC[C@@H](C)C[C@H]1O [isopulegol]
